For 19 molecules, IC50 and EC50 results are on record in US8178548B2, “Anti-infective agents and uses thereof” (priority 2007, dated 2012).

The target of assay [1] is T1, HCV polymerase 1A (Δ21 NS5B, H77) (Hepatitis C virus genotype 1a, UniProt P27958).
T1 construct: 20 to 50 nM Δ21 NS5B
Description: biochemical. The procedure: (§1) Either two-fold serial dilutions (fractional inhibition assay) or a narrower range of dilutions spanning the IC50 of the inhibitor (tight binding assay) of the inhibitors were incubated with 20 mM Tris-Cl pH 7.4, 2 mM MnCl2, 1 mM dithiothreitol, 1 mM ethylene diamine tetraacetic acid (EDTA), 60 to 125 μM GTP and 20 to 50 nM Δ21 NS5B (HCV Strain 1B (BK, Genbank accession number M58335, or H77, Genbank accession number AF011751)) for 15 min at room temperature. The reaction was initiated by the addition of 20 μM CTP, 20 μM ATP, 1 μM ^3H-UTP (10 mCi/umol), 5 nM template RNA and 0.1 U/μl RNase inhibitor (RNasin, Promega), and allowed to proceed for 2 to 4 h at room temperature. Reaction volume was 50 μl. The reaction was terminated by the addition of 1 volume of 4 mM spermine in 10 mM Tris-Cl pH 8.0, 1 mM EDTA. After incubation for at least 15 min at room temperature, the precipitated RNA was captured by filtering through a GF/B filter (Millipore) in a 96 well format. The filter plate was washed three times with 200 μl each of 2 mM spermine, 10 mM Tris-Cl pH 8.0, 1 mM EDTA, and 2 times with ethanol. After air-drying, 30 μl of Microscint 20 scintillation cocktail (Packard) was added to each well, and the retained cpm were determined by scintillation counting. […] Retained cpm were plotted vs. inhibitor concentration and fit to equation 1 using non-linear regression (ref. 1) to obtain the IC50 values: Retained cpm=A[sqrt{(IC50+It−Et)^2+4*IC50*Et}−(IC50+It−Et)]
(§2) Ref. Morrison, J. F. and S. R. Stone. 1985. Approaches to the study and analysis of the inhibition of enzymes by slow- and tight-binding inhibitors. Comments Mol. Cell. Biophys. 2: 347-368.
(§3) The sequence of the template RNA used was: 5′-[…] […] […] […] […] […] […] […] […] […] […] […] […] […] […] […] […]-3′ (SEQ ID NO:1).

Assay [2] has as its target T2, HCV polymerase 1B (Δ21 NS5B, HCV Strain 1B BK) (Hepatitis C virus genotype 1b, UniProt P26663).
T2 construct: 20 to 50 nM Δ21 NS5B
Description: biochemical. As for the experimental part:
as §1, §2, §3

The test system of assay [3] is genotype 1b-Con1 subgenomic replicon cell line. Description: HCV Polymerase Replicon Assay, genotype 1b-Con1 (luciferase reporter). Type of assay: cell-based. The conditions noted are these: Hepatitis C virus, 72 h, read-out: EC50 1b.
Assay [4] concerns genotype 1a-H77 subgenomic replicon cell line. Description: HCV Polymerase Replicon Assay, genotype 1a-H77 (luciferase reporter). Type of assay: cell-based. As to conditions: Hepatitis C virus, 72 h, read-out: EC50 1a.
Where [5] appears, read: replicon 1b-Con1, luciferase, three days.
Where [6] appears, read: replicon 1a-H77, luciferase, three days.

Where two headings read alike, the source gives them in different places.

T1 sequence (P27958 2421-2990, stated change not applied): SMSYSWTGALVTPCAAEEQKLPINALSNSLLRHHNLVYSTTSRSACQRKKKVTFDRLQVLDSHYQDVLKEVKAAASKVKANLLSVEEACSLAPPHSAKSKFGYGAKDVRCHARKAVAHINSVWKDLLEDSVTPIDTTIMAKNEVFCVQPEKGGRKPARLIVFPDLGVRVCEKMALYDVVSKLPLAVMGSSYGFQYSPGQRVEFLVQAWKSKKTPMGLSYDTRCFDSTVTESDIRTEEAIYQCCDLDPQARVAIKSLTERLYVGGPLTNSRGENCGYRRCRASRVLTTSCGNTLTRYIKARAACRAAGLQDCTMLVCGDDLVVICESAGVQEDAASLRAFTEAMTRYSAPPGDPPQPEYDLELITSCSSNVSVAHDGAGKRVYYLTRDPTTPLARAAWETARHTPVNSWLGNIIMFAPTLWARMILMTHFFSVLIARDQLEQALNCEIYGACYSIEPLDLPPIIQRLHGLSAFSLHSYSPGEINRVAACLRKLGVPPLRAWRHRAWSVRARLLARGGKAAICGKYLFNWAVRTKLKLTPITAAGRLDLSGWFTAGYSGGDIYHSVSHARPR
T2 sequence (P26663 2420-2989, stated change not applied): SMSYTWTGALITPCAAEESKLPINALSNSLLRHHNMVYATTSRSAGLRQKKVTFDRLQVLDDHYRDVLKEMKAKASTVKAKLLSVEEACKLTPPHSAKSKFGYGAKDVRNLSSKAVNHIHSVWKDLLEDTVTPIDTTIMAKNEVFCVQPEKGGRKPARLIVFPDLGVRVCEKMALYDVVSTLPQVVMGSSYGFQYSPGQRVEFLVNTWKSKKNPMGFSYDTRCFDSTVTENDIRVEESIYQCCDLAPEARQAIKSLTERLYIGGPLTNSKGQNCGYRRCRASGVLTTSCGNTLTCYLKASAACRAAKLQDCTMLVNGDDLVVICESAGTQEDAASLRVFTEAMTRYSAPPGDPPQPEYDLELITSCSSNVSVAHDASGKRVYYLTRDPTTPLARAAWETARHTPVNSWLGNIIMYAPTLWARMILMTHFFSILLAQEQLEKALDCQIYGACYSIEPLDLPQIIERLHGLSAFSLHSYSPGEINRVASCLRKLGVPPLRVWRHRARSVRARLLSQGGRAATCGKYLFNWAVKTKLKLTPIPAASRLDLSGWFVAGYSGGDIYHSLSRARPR

Turning to `CC(C)(C)c1cc(/C=C/c2ccc([N+](=O)[O-])cc2)cc(N2CCC(=O)NC2=O)c1` [IA-L1-1.25, 1-{3-tert-Butyl-5-[(E)-2-(4-nitro-phenyl)-vinyl]-phenyl}-dihydro-pyrimidine-2,4-dione], the IC50 in assay [1] and in assay [2] was greater than 1 µM throughout.

As for `COc1ccc(/C=C/c2cc(N3CCC(=O)NC3=O)cc(C(C)(C)C)c2OC)cc1` [IA-L1-1.14, (E)-1-(3-tert-butyl-4-methoxy-5-(4-methoxystyryl)phenyl)dihydropyrimidine-2,4(1H,3H)-dione], the EC50 in assay [3] and in assay [4] was greater than 1 µM in each case. In addition, the IC50 in assay [1] and in assay [2] was greater than 1 µM each time.

With `CCOC(=O)c1cc(NS(C)(=O)=O)ccc1/C=C/c1cc(-n2ccc(=O)[nH]c2=O)cc(C(C)(C)C)c1OC` [IB-L1-1.11, 2-{(E)-2-[3-tert-Butyl-5-(2,4-dioxo-3,4-dihydro-2H-pyrimidin-1-yl)-2-methoxy-phenyl]-vinyl}-5-methanesulfonylamino-benzoic acid ethyl ester], the EC50 in assay [3] is less than 0.01 µM; in assay [4], 0.01 to 0.1 µM. The IC50 in assay [1] was less than 0.01 µM; in assay [2] it was 0.01 to 0.1 µM.

For `COc1c(/C=C/c2ccc(NS(C)(=O)=O)cc2C(=O)N2CCOCC2)cc(-n2ccc(=O)[nH]c2=O)cc1C(C)(C)C` [IB-L1-1.23, (E)-N-(4-(3-tert-butyl-5-(2,4-dioxo-3,4-dihydropyrimidin-1(2H)-yl)-2-methoxystyryl)-3-(morpholine-4-carbonyl)phenyl)methanesulfonamide], the values for the EC50 in assay [3] and in assay [4] were less than 0.01 µM and 0.1 to 1 µM, respectively. In addition, the IC50 in assay [1] and in assay [2] was 0.01 to 0.1 µM in each case.

As to `COc1c(/C=C\c2ccc(NS(C)(=O)=O)cc2)cc(N2CCC(=O)NC2=O)cc1C(C)(C)C` [IA-L1-1.20, (Z)-N-(4-(3-tert-butyl-5-(2,4-dioxotetrahydropyrimidin-1(2H)-yl)-2-methoxystyryl)phenyl)methanesulfonamide], the EC50 in assay [3] and in assay [4] was 0.01 to 0.1 µM each time.

With `COc1c(/C=C/c2ccc(F)cc2)cc(N2CCC(=O)NC2=O)cc1C(C)(C)C` [IA-L1-1.12, (E)-1-(3-tert-butyl-5-(4-fluorostyryl)-4-methoxyphenyl) dihydropyrimidine-2,4(1H,3H)-dione], the EC50 in assay [3] and in assay [4] was 0.1 to 1 µM in each case. Besides, the IC50 in assay [1] and in assay [2] was 0.1 to 1 µM each time.

With `COc1c(/C=C/c2ccc(NS(C)(=O)=O)cc2COC(C)C)cc(-n2ccc(=O)[nH]c2=O)cc1C(C)(C)C` [IB-L1-1.25, N-(4-{(E)-2-[3-tert-butyl-5-(2,4-dioxo-3,4-dihydro-2H-pyrimidin-1-yl)-2-methoxy-phenyl]-vinyl}-3-isopropoxymethyl-phenyl)-methanesulfonamide], the EC50 was less than 0.01 µM in assay [3] and 0.01 to 0.1 µM in assay [4]. Also, the IC50 in assay [1] and in assay [2] was 0.01 to 0.1 µM throughout.

For the molecule `COc1c(/C=C/c2ccc(NS(C)(=O)=O)cc2)cc(-n2cc(Cl)c(=O)[nH]c2=O)cc1C(C)(C)C` [IB-L1-1.20, N-(4-{(E)-2-[3-tert-butyl-5-(5-chloro-2,4-dioxo-3,4-dihydro-2H-pyrimidin-1-yl)-2-methoxyphenyl]-vinyl}-phenyl)-methanesulfonamide], the EC50 is less than 0.01 µM in assay [3] (setting [5]) and 0.01 to 0.1 µM in assay [4] (setting [6]). In addition, the IC50 is less than 0.01 µM in assay [1] and 0.01 to 0.1 µM in assay [2].

Regarding `COc1c(/C=C/c2ccc(NS(C)(=O)=O)cc2)cc(-n2ccc(=O)[nH]c2=O)cc1-c1ccsc1` [IB-L1-1.47, (E)-N-(4-(5-(2,4-dioxo-3,4-dihydropyrimidin-1(2H)-yl)-2-methoxy-3-(thiophen-3-yl)styryl)phenyl)methanesulfonamide], the EC50 is 0.01 to 0.1 µM in assay [3] (setting [5]) and 0.1 to 1 µM in assay [4] (setting [6]). For the same molecule, the IC50 in assay [1] and in assay [2] was 0.01 to 0.1 µM throughout.

For the molecule `CNC(=O)c1cc(NS(C)(=O)=O)ccc1/C=C/c1cc(-n2ccc(=O)[nH]c2=O)cc(C(C)(C)C)c1OC` [IB-L1-1.17, 2-{(E)-2-[3-tert-butyl-5-(2,4-dioxo-3,4-dihydro-2H-pyrimidin-1-yl)-2-methoxy-phenyl]-vinyl}-5-methanesulfonylamino-N-methyl-benzamide], the EC50 in assay [3] was less than 0.01 µM; in assay [4] it was 0.01 to 0.1 µM. For the same molecule, the IC50 in assay [1] was less than 0.01 µM; in assay [2], 0.01 to 0.1 µM.

For `COc1c(/C=C/c2ccccc2)cc(N2CCC(=O)NC2=O)cc1C(C)(C)C` [IA-L1-1.18, (E)-1-(3-tert-butyl-4-methoxy-5-styrylphenyl)dihydro-pyrimidine-2,4(1H,3H)-dione], the EC50 in assay [3] and in assay [4] was 0.1 to 1 µM each time. Also, the IC50 in assay [1] and in assay [2] was 0.1 to 1 µM throughout.

For `COc1c(CCc2ccc(NS(C)(=O)=O)cc2)cc(N2CCC(=O)NC2=O)cc1C(C)(C)C` [IA-L5-2-1.1, N-(4-(3-tert-butyl-5-(2,4-dioxotetrahydropyrimidin-1(2H)-yl)-2-methoxyphenethyl)phenyl)methanesulfonamide], the values for the EC50 in assay [3] (setting [5]) and in assay [4] (setting [6]) were 0.01 to 0.1 µM and 0.1 to 1 µM, respectively. Also, the IC50 in assay [1] and in assay [2] was 0.01 to 0.1 µM in each case.

For `COc1c(/C=C(/F)c2ccc(NS(C)(=O)=O)cc2)cc(N2CCC(=O)NC2=O)cc1C(C)(C)C` [IA-L1-1.5, (E)-N-(4-(2-(3-tert-butyl-5-(2,4-dioxotetrahydropyrimidin-1(2H)-yl)-2-methoxyphenyl)-1-fluorovinyl)phenyl)methanesulfonamide], the EC50 in assay [3] is less than 0.01 µM; in assay [4] it was 0.01 to 0.1 µM. Besides, the IC50 in assay [1] is less than 0.01 µM; in assay [2], 0.01 to 0.1 µM.

With `COc1c(/C=C/c2ccc(NS(C)(=O)=O)cc2-c2ncc[nH]2)cc(-n2ccc(=O)[nH]c2=O)cc1C(C)(C)C` [IB-L1-1.16, (E)-N-(4-(3-tert-butyl-5-(2,4-dioxo-3,4-dihydropyrimidin-1(2H)-yl)-2-methoxystyryl)-3-(1H-imidazol-2-yl)phenyl)methanesulfonamide], the values for the EC50 in assay [3] and in assay [4] were 0.01 to 0.1 µM and 0.1 to 1 µM, respectively. Besides, the figures for the IC50 in assay [1] and in assay [2] were less than 0.01 µM and 0.01 to 0.1 µM, respectively.

With `COc1c(/C=C/c2ccc(NS(C)(=O)=O)cc2)cc(-n2ccc(=O)[nH]c2=O)cc1-c1cccnc1` [IB-L1-1.53, (E)-N-(4-(5-(2,4-dioxo-3,4-dihydropyrimidin-1(2H)-yl)-2-methoxy-3-(pyridin-3-yl)styryl)phenyl)methanesulfonamide], the IC50 in assay [1] and in assay [2] was greater than 1 µM in each case.

As for `COc1c(/C=C/c2ccc(NS(C)(=O)=O)c(F)c2)cc(N2CCC(=O)NC2=O)cc1C(C)(C)C` [IA-L1-1.26, (E)-N-(4-(3-tert-butyl-5-(2,4-dioxotetrahydropyrimidin-1(2H)-yl)-2-methoxystyryl)-2-fluorophenyl)methanesulfonamide], the EC50 in assay [3] and in assay [4] was 0.01 to 0.1 µM throughout. The IC50 in assay [1] and in assay [2] was 0.01 to 0.1 µM each time.

On to `COc1c(/C=C(\C)c2ccc([N+](=O)[O-])cc2)cc(N2CCC(=O)NC2=O)cc1C(C)(C)C` [IA-L1-1.24, 1-{3-tert-butyl-4-methoxy-5-[(E)-2-(4-nitro-phenyl)-propenyl]-phenyl}-dihydro-pyrimidine-2,4-dione], for which the EC50 in assay [3] and in assay [4] was greater than 1 µM in each case. Moreover, the IC50 in assay [1] and in assay [2] was greater than 1 µM in each case.

`COc1c(/C=C/c2ccc(NS(C)(=O)=O)cc2)cc(-n2cc(F)c(=O)[nH]c2=O)cc1C(C)(C)C` [IB-L1-1.2, (E)-N-(4-(3-tert-butyl-5-(5-fluoro-2,4-dioxo-3,4-dihydropyrimidin-1(2H)-yl)-2-methoxystyryl)phenyl)methanesulfonamide]: the EC50 in assay [3] (setting [5]) lay in the range of 0.01 to 0.1 µM. Besides, the IC50 in assay [1] and in assay [2] was 0.01 to 0.1 µM each time.

Regarding `COc1c(/C=C/c2ccc(NS(C)(=O)=O)cc2)cc(-n2ccc(=O)[nH]c2=O)cc1-c1ccncc1` [IB-L1-1.55, (E)-N-(4-(5-(2,4-dioxo-3,4-dihydropyrimidin-1(2H)-yl)-2-methoxy-3-(pyridin-4-yl)styryl)phenyl)methanesulfonamide], the IC50 in assay [1] and in assay [2] was greater than 1 µM in each case.
